The record followed here is US20230406831A1, “COMPOUNDS AND METHODS OF INHIBITING BACTERIAL CHAPERONIN SYSTEMS” (THE TRUSTEES OF INDIANA UNIVERSITY, priority 2020, published 2023).

Like-named read-outs stand apart in the source and are kept apart here. Where only a bound is given, the exact number is not on record here.

Data set [1] is described as follows: HEK 293 kidney cell viability / cytotoxicity assay (Alamar Blue). The class given is cell-based. Particulars: human, 48 h incubation, Alamar Blue, read-out: HEK 293 Kidney Cell Viability CC50. On the procedure: Evaluating compound effects on kidney cell viability.
HEK 293 cells were maintained in MEM medium (Corning Cellgro, 10-009 CV) supplemented with 10% FBS (Sigma, F2242). […] Cells at 80% confluence were harvested and diluted in growth medium, then 45 μL of the HEK 293 cells (1,500 cells/well) were dispensed per well, and plates were sealed with “Breathe Easy” oxygen permeable membranes (Diversified Biotech) and incubated at 37° C., 5% CO2, for 24 h. […] Plates were sealed with “Breathe Easy” oxygen permeable membranes and incubated for an additional 48 h at 37° C. and 5% CO2. The Alamar Blue reporter reagents were then added to a final concentration of 10%, the plates incubated at 37° C. and 5% CO2, and sample fluorescence (535 nm excitation, 590 nm emission) was read using a Molecular Devices FlexStation II 384-well plate reader (readings taken between 4-24 h of incubation so as to achieve signals in the 30-60% range for conversion of resazurin to resorufin). Cell viability was calculated as per vendor instructions (Thermo Fisher—Alamar Blue cell viability assay manual).
On the technique in general: Resazurin is reduced to fluorescent resorufin, in cell work by metabolically active cells.

The next data set has as its system S. aureus. In words: S. aureus bacterial proliferation assay. The class given is cell-based. Particulars: for EC50: Staphylococcus aureus, read-out: S. aureus Proliferation EC50. On the procedure:
Evaluation of compounds for inhibition of bacterial cell proliferation.
Growth Media: S. aureus bacteria were grown in Brain Heart Infusion (BHI) broth/agar (Becton, Dickinson and Company). All liquid cultures were grown in BHI media supplemented with 25 mg/L Ca^2+ and 12.5 mg/L Mg^2+ to mimic free physiological concentrations of these cations. A 10 mg/mL Ca^2+ stock solution was prepared by dissolving 3.68 g of CaCl2·2H^2O in 100 mL of deionized water, and a 10 mg/mL Mg^2+ stock solution was prepared by dissolving 8.36 g of […] in 100 mL deionized water. Both stock solutions were filter-sterilized using 0.2 μm pore size cellulose-acetate filters. 2.5 mL of the sterile 10 mg/mL Ca^2+ stock and 1.25 mL of the sterile 10 mg/mL Mg^2+ stock solutions were added per 1 L of autoclaved BHI medium to obtain 25 mg/L Ca^2+ and 12.5 mg/L Mg^2+ ions, respectively.
General Assay Protocol: Stock bacterial cultures were streaked onto BHI agar plates and grown overnight at 37° C. Fresh aliquots of broth were inoculated with single bacterial colonies and the cultures were grown overnight at 37° C. with shaking (240 rpm) in cation adjusted BHI media. The following morning, the overnight cultures were sub-cultured (1:5 dilution) into fresh aliquots of cation adjusted BHI media and grown at 37° C. for 1-2 hours with shaking. After 2 h, cultures were diluted into fresh media to achieve final OD600 readings of 0.017. Aliquots of these diluted cultures (30 μL) were added to clear, flat-bottom, 384-well polystyrene plates that were stamped with 0.5 μL of test compounds in 20 μL media. Compounds were evaluated in dose-response format where the inhibitor concentration range during the proliferation assay was 100 μM to 46 nM (3-fold dilution series). Plates were sealed with “Breathe Easy” oxygen permeable membranes (Diversified Biotech) and left to incubate at 37° C. without shaking (stagnant assay). OD600 nm readings were taken generally at 6-8 h, when bacteria had reached log-phase growth. A second set of baseline control plates were prepared analogously, but without any bacteria added, to correct for possible compound absorbance and/or precipitation. Plates were then read at 600 nm using a Molecular Devices SpectraMax Plus384 microplate reader. EC50 values for the test compounds were obtained by plotting the OD600 results in GraphPad Prism and analyzing by non-linear regression using the log(inhibitor) vs. response (variable slope) equation. For results, see Tables 1, 2, and 3.

[2] abbreviates: Table 2, cation adjusted BHI media, OD600 at 6-8 h.
[3] abbreviates: Table 3, cation adjusted BHI media, OD600 at 6-8 h.

A word on the CC50: it is the concentration that lowers cell viability or growth by half. In the case of `Cc1cc(C(C#N)c2ccc(Cl)cc2)c(Cl)cc1NC(=O)c1cccc(O)c1` (stereo not drawn) [Compound 65, N-(5-chloro-4-((4-chlorophenyl)(cyano)methyl)-2-methylphenyl)-3-hydroxybenzamide], in data set [1] (HEK 293 kidney cells, Table 2), the CC50 at 48 h came out at 44 µM. The S. aureus Proliferation EC50 in the data set on S. aureus (setting [2]) is 1.8 µM.
For `Cc1cc(C(C#N)c2ccc(Cl)cc2)c(Cl)cc1NC(=O)c1ccc(Br)cc1` (stereo not drawn) [Compound 75, 4-bromo-N-(5-chloro-4-((4-chlorophenyl)(cyano)methyl)-2-methylphenyl)benzamide] the same measures were 33 µM and more than 100 µM.
As to `Cc1cc(C(C#N)c2ccc(Cl)cc2)c(Cl)cc1NC(=O)c1ccccc1O` (stereo not drawn) [Compound 64, N-(5-chloro-4-((4-chlorophenyl)(cyano)methyl)-2-methylphenyl)-2-hydroxybenzamide], the cytotoxic concentration (CC50) at 48 h in data set [1] (Table 2) was found to be 26 µM. In addition, in the data set with S. aureus, the EC50 was determined as 280 nM.
`O=C(Nc1ccc(OCc2ccccc2)cc1)c1cc(Cl)ccc1O` [Compound 103, N-(4-(benzyloxy)phenyl)-5-chloro-2-hydroxybenzamide]: in data set [1] (HEK 293 kidney cells, Table 3), the half-maximal cytotoxic concentration (CC50) at 48 h was more than 100 µM. For the same molecule, the EC50 in the data set with S. aureus (setting [3]) was more than 100000 nM.
Consider `O=C(Nc1ccc(Oc2ccccc2)c(Cl)c1)c1cc(Cl)ccc1O` [Compound 91, 5-chloro-N-(3-chloro-4-phenoxyphenyl)-2-hydroxybenzamide], for which the half-maximal cytotoxic concentration (CC50) at 48 h in data set [1] (Table 3) was 4.7 µM. The EC50 in the data set on S. aureus (setting [3]) came out at 210 nM.
As for `Cc1ccc(O)c(C(=O)Nc2cc(Cl)c(C(C#N)c3ccc(Cl)cc3)cc2C)c1` (stereo not drawn) [Compound 60, N-(5-chloro-4-((4-chlorophenyl)(cyano)methyl)-2-methylphenyl)-2-hydroxy-5-methylbenzamide], the 50% cytotoxic concentration (CC50) at 48 h in data set [1] (Table 2) was 40 µM. The S. aureus Proliferation EC50 in the data set on S. aureus (setting [2]) came out at 1.3 µM.
For the molecule `COc1c(Cl)cccc1C(=O)Nc1cc(Cl)c(C(C#N)c2ccc(Cl)cc2)cc1C` (stereo not drawn) [Compound 53, 3-chloro-N-(5-chloro-4-((4-chlorophenyl)(cyano)methyl)-2-methylphenyl)-2-methoxybenzamide], the CC50 at 48 h in data set [1] (HEK 293 kidney cells, Table 2) is more than 100 µM. Also, in the data set with S. aureus (setting [2]), the S. aureus Proliferation EC50 was more than 100 µM.
Consider `COc1c(Br)cc(Br)cc1C(=O)Nc1cc(Cl)c(C(C#N)c2ccc(Cl)cc2)cc1C` (stereo not drawn) [Compound 45, 3,5-dibromo-N-(5-chloro-4-((4-chlorophenyl)(cyano)methyl)-2-methylphenyl)-2-methoxybenzamide], for which, in data set [1] (Table 2), the half-maximal cytotoxic concentration (CC50) at 48 h amounted to 66 µM. This molecule showed a S. aureus Proliferation EC50 with S. aureus (setting [2]) of more than 100 µM.
`Cc1cc(C(C#N)c2ccc(Cl)cc2)c(Cl)cc1NC(=O)c1cc(Cl)cc(Cl)c1O` (stereo not drawn) [Compound 52, 3,5-dichloro-N-(5-chloro-4-((4-chlorophenyl)(cyano)methyl)-2-methylphenyl)-2-hydroxybenzamide]: in data set [1] (HEK 293 kidney cells, Table 2), the 50% cytotoxic concentration (CC50) at 48 h stood at 44 µM. The EC50 in the data set on S. aureus (setting [2]) stood at 270 nM.
On to `Cc1cc(C(C#N)c2ccc(Cl)cc2)c(Cl)cc1NC(=O)c1cccc(Cl)c1O` (stereo not drawn) [Compound 54, 3-chloro-N-(5-chloro-4-((4-chlorophenyl)(cyano)methyl)-2-methylphenyl)-2-hydroxybenzamide], for which, in data set [1] (Table 2), the 50% cytotoxic concentration (CC50) at 48 h was 88 µM. Further, in the data set on S. aureus (setting [2]), the EC50 is 560 nM.
On to `Cc1cc(C(C#N)c2ccc(Cl)cc2)c(Cl)cc1NC(=O)c1ccc(F)cc1` (stereo not drawn) [Compound 81, N-(5-chloro-4-((4-chlorophenyl)(cyano)methyl)-2-methylphenyl)-4-fluorobenzamide], for which the CC50 at 48 h in data set [1] (Table 2) is 78 µM. This molecule also came in with a S. aureus Proliferation EC50 with S. aureus (setting [2]) of more than 100 µM.
In the case of `Cc1cc(C(C#N)c2ccc(Cl)cc2)c(Cl)cc1NC(=O)c1cc(Cl)ccc1O` (stereo not drawn) [Compound 58, 5-chloro-N-(5-chloro-4-((4-chlorophenyl)(cyano)methyl)-2-methylphenyl)-2-hydroxybenzamide], the cytotoxic concentration (CC50) at 48 h in data set [1] (Table 2) was 11 µM. In addition, the EC50 in the data set on S. aureus was determined as 140 nM.
In the case of `O=C(Nc1ccc(Oc2ccc(Cl)cc2)c(Cl)c1)c1cc(I)cc(I)c1O` [Rafoxanide, reference compound], in data set [1] (Table 1), the 50% cytotoxic concentration (CC50) at 48 h is 82 µM. For the same molecule, the EC50 in the data set with S. aureus amounted to 300 nM.
With `COc1c(Cl)cc(Cl)cc1C(=O)Nc1cc(Cl)c(C(C#N)c2ccc(Cl)cc2)cc1C` (stereo not drawn) [Compound 51, 3,5-dichloro-N-(5-chloro-4-((4-chlorophenyl)(cyano)methyl)-2-methylphenyl)-2-methoxybenzamide], in data set [1] (Table 2), the cytotoxic concentration (CC50) at 48 h was 83 µM. In the data set on S. aureus (setting [2]), this molecule displayed a S. aureus Proliferation EC50 of more than 100 µM.
In the case of `Cc1cc(C(C#N)c2ccc(Cl)cc2)c(Cl)cc1NC(=O)c1cccc(Cl)c1` (stereo not drawn) [Compound 77, 3-chloro-N-(5-chloro-4-((4-chlorophenyl)(cyano)methyl)-2-methylphenyl)benzamide], the CC50 at 48 h in data set [1] (HEK 293 kidney cells, Table 2) was more than 100 µM. In addition, the S. aureus Proliferation EC50 with S. aureus (setting [2]) is more than 100 µM.
For `Cc1cc(C(C#N)c2ccc(Cl)cc2)c(Cl)cc1NC(=O)c1ccc(Cl)cc1O` (stereo not drawn) [Compound 56, 4-chloro-N-(5-chloro-4-((4-chlorophenyl)(cyano)methyl)-2-methylphenyl)-2-hydroxybenzamide], the CC50 at 48 h in data set [1] (Table 2) was determined as 16 µM. Also, in the data set with S. aureus (setting [2]), the EC50 came to 13 nM.
With `COc1ccc(Br)cc1C(=O)Nc1cc(Cl)c(C(C#N)c2ccc(Cl)cc2)cc1C` (stereo not drawn) [Compound 49, 5-bromo-N-(5-chloro-4-((4-chlorophenyl)(cyano)methyl)-2-methylphenyl)-2-methoxybenzamide], the CC50 at 48 h in data set [1] (Table 2) was more than 100 µM. Also, the S. aureus Proliferation EC50 with S. aureus (setting [2]) was more than 100 µM.
On to `COc1ccc(Cl)cc1C(=O)Nc1ccc(OCc2ccccc2)cc1` [Compound 102, N-(4-(benzyloxy)phenyl)-5-chloro-2-methoxybenzamide], for which the CC50 at 48 h in data set [1] (HEK 293 kidney cells, Table 3) is more than 100 µM. For the same molecule, the EC50 in the data set with S. aureus (setting [3]) was more than 100000 nM.
With `COc1cccc(C(=O)Nc2cc(Cl)c(C(C#N)c3ccc(Cl)cc3)cc2C)c1` (stereo not drawn) [Compound 62, N-(5-chloro-4-((4-chlorophenyl)(cyano)methyl)-2-methylphenyl)-3-methoxybenzamide], the CC50 at 48 h in data set [1] (HEK 293 kidney cells, Table 2) was 50 µM. In the data set with S. aureus (setting [2]), this molecule had a S. aureus Proliferation EC50 of more than 100 µM.
As for `COc1ccc(Cl)cc1C(=O)Nc1ccc(Oc2ccccc2)cc1` [Compound 92, 5-chloro-2-methoxy-N-(4-phenoxyphenyl)benzamide], the CC50 at 48 h in data set [1] (HEK 293 kidney cells, Table 3) was more than 100 µM. For the same molecule, the EC50 in the data set with S. aureus (setting [3]) was more than 100000 nM.
Turning to `COc1ccccc1C(=O)Nc1cc(Cl)c(C(C#N)c2ccc(Cl)cc2)cc1C` (stereo not drawn) [Compound 61, N-(5-chloro-4-((4-chlorophenyl)(cyano)methyl)-2-methylphenyl)-2-methoxybenzamide], the CC50 at 48 h in data set [1] (HEK 293 kidney cells, Table 2) was more than 100 µM. In the data set on S. aureus (setting [2]), the S. aureus Proliferation EC50 is more than 100 µM.
Take `Cc1cc(C(C#N)c2ccc(Cl)cc2)c(Cl)cc1NC(=O)c1cccc([N+](=O)[O-])c1` (stereo not drawn) [Compound 68, N-(5-chloro-4-((4-chlorophenyl)(cyano)methyl)-2-methylphenyl)-3-nitrobenzamide]: in data set [1] (HEK 293 kidney cells, Table 2), the CC50 at 48 h is more than 100 µM. The S. aureus Proliferation EC50 in the data set on S. aureus (setting [2]) is more than 100 µM.
Regarding `COc1ccc(NC(=O)c2cc(Cl)ccc2O)cc1` [Compound 113, 5-chloro-2-hydroxy-N-(4-methoxyphenyl)benzamide], the CC50 at 48 h in data set [1] (HEK 293 kidney cells, Table 3) amounted to 19 µM. Besides, the EC50 with S. aureus (setting [3]) came to 31000 nM.
Regarding `O=C(Nc1ccc(Oc2ccc(Cl)cc2)c(Cl)c1)c1cc(Cl)ccc1O` [Compound 87, 5-chloro-N-(3-chloro-4-(4-chlorophenoxy)phenyl)-2-hydroxybenzamide], in data set [1] (Table 3), the CC50 at 48 h is 10 µM. Moreover, the EC50 in the data set on S. aureus (setting [3]) was determined as 170 nM.
